Experimental data as given in patent US8884030B2, “Inhibitors of Flaviviridae viruses” (priority 2010, dated 2014).

Test system: human hepatoma Huh-7 cell line harboring a HCV replicon
Experiment: HCV replicon assay (inhibition of viral replication, luciferase)
Assay type: cell-based
Details: Hepatitis C virus, 72 h; 2 μM; Huh-7 HCV replicon cells, 3 days incubation; inhibition of viral replication; read-out: % inhibition at 2 μM
Protocol: The anti-HCV activity of the compounds of this invention was tested in a human hepatoma Huh-7 cell line harboring a HCV replicon. The assay comprised the following steps:
Step 1: Compound Preparation and Serial Dilution.
Serial dilution was performed in 100% DMSO in a 384-well plate. A solution containing a compound at 225-fold concentration of the starting final serial dilution concentration was prepared in 100% DMSO and 15 uL added to the pre-specified wells in column 3 or 13 of a polypropylene 384-well plate. The rest of the 384-well plate was filled with 10 uL 100% DMSO except for columns 23 and 24, where 10 uL of 500 uM a HCV protease inhibitor (ITMN-191) in 100% DMSO was added. The HCV protease inhibitor was used a control of 100% inhibition of HCV replication. The plate was then placed on a Biomek FX Workstation to start the serial dilution. The serial dilution was performed for ten cycles of 3-fold dilution from column 3 to 12 or from column 13 to 22.
Step 2: Cell Culture Plate Preparation and Compound Addition
To each well of a black polypropylene 384-well plate, 90 μL of cell media containing 1600 suspended Huh-7 HCV replicon cells was added with a Biotek uFlow Workstation. A volume of 0.4 μL of the compound solution was transferred from the serial dilution plate to the cell culture plate on a Biomek FX Workstation. The DMSO concentration in the final assay condition was 0.44%. The plates were incubated for 3 days at 37° C. with 5% CO2 and 85% humidity.
Step 3: Detection of Cytotoxicity and Inhibition of Viral Replication
a) Assessment of cytotoxicity: The media in the 384-well cell culture plate was aspirated with a Biotek EL405 plate-washer. A volume of 50 μL of a solution containing 400 nM Calcein AM in 100% PBS was added to each well of the plate with a Biotek uFlow Workstation. The plate was incubated for 30 minutes at room temperature before the fluorescence signal ([…]) was measured with a Perkin Elmer Envision Plate Reader.
b) Assessment of inhibition of viral replication: The calcein-PBS solution in the 384-well cell culture plate was aspirated with a Biotek EL405 plate-washer. A volume of 20 μL of Dual-Glo luciferase buffer (Promega, Dual-Glo Luciferase Assay Reagent, cat. #E298B) was added to each well of the plate with a Biotek uFlow Workstation. The plate was incubated for 10 minutes at room temperature. A volume of 20 μL of a solution containing 1:100 mixture of Dual-Glo Stop & Glo substrate(Promega, Dual-Glo Luciferase Assay Reagent, cat. #E313B) and Dual-Glo Stop & Glo buffer (Promega, Dual-Glo Luciferase Assay Reagent, cat. #E314B) was then added to each well of the plate with a Biotek uFlow Workstation. The plate was incubated at room temperature for 10 minutes before the luminescence signal was measured with a Perkin Elmer Envision Plate Reader.
The percent cytotoxicity was determined by calcein AM conversion to fluorescent product. The average fluorescent signal from the DMSO control wells were defined as 100% nontoxic. The individual fluorescent signal from testing compound treated well was divided by the average signal from DMSO control wells and then multiplied by 100% to get the percent viability. The percent anti-HCV replication activity was determined by the luminescence signal from the testing well compared to DMSO controls wells. The background signal was determined by the average luminescence signal from the HCV protease inhibitor treated wells and was subtracted from the signal from the testing wells as well as the DMSO control wells. Following 3-fold serial dilutions, the EC50 and CC50 values were calculated by fitting % inhibition at each concentration to the following equation: % inhibition=100%[(EC50/[l])^b+1]
Where b is Hill's coefficient. See, for reference, Hill, A. V., The Possible Effects of the Aggregation of the Molecules of Hæmoglobin on its Dissociation Curves, J. Physiol. 40: iv-vii. (1910). […]

Row | SMILES | inhibition at 2 µM
1 | CC(C)(C)C#Cc1cc(N(C(=O)[C@H]2CC[C@H](C)CC2)C2CCC(NC(=O)O[C@@H]3CCCNC3)CC2)c(C(=O)O)s1 (stereo partly drawn) [Compound 47, 5-(3,3-dimethyl-but-1-ynyl)-3-{(4-trans-methyl-cyclohexanecarbonyl)-[4-(piperidin-3-(R)-yloxycarbonylamino)-cyclohexyl]-amino}-thiophene-2-carboxylic acid] | 99.9%
2 | CC(C)(C)C#Cc1cc(N(C(=O)[C@H]2CC[C@H](C)CC2)C2CCC(NC(=O)O[C@@H]3CCOC3)CC2)c(C(=O)O)s1 (stereo partly drawn) [Compound 48, 5-(3,3-dimethyl-but-1-ynyl)-3-{(4-trans-methyl-cyclohexanecarbonyl)-[4-(tetrahydro-furan-3-(R)-yloxycarbonylamino)-cyclohexyl]-amino}-thiophene-2-carboxylic acid] | 100%
3 | CC(C)(C)C#Cc1cc(N(C(=O)[C@H]2CC[C@H](C)CC2)C2CCC(NC(=O)O[C@H]3CNC(=O)C3)CC2)c(C(=O)O)s1 (stereo partly drawn) [Compound 49, 5-(3,3-dimethyl-but-1-ynyl)-3-{(4-trans-methyl-cyclohexanecarbonyl)-[4-(5-oxo-pyrrolidin-3-(S)-yloxycarbonylamino)-cyclohexyl]-amino}-thiophene-2-carboxylic acid] | 99.2%
4 | CC(C)(C)C#Cc1cc(N(C(=O)[C@H]2CC[C@H](C)CC2)C2CCC(NC(=O)O[C@@H]3CCNC3=O)CC2)c(C(=O)O)s1 (stereo partly drawn) [Compound 50, 5-(3,3-dimethyl-but-1-ynyl)-3-{(4-trans-methyl-cyclohexanecarbonyl)-[4-(2-oxo-pyrrolidin-3-(R)-yloxycarbonylamino)-cyclohexyl]-amino}-thiophene-2-carboxylic acid] | 99.9%
5 | CC(C)(C)C#Cc1cc(N(C(=O)[C@H]2CC[C@H](C)CC2)C2CCN(C(=O)O[C@@H]3CCCN(C(=O)OC(C)(C)C)C3)CC2)c(C(=O)O)s1 [Compound 51, Boc protected 4-[[2-carboxy-5-(3,3-dimethyl-but-1-ynyl)-thiophen-3-yl]-(4-trans-methyl-cyclohexanecarbonyl)-amino]-piperidine-1-carboxylic acid piperidin-3-(R)-yl ester] | 85.5%
6 | CC(C)(C)C#Cc1cc(N(C(=O)[C@H]2CC[C@H](C)CC2)C2CCN(C(=O)O[C@@H]3CCCNC3)CC2)c(C(=O)O)s1 [Compound 52, 4-[[2-carboxy-5-(3,3-dimethyl-but-1-ynyl)-thiophen-3-yl]-(4-trans-methyl-cyclohexanecarbonyl)-amino]-piperidine-1-carboxylic acid piperidin-3-(R)-yl ester] | 93.5%
7 | CC(C)(C)C#Cc1cc(N(C(=O)[C@H]2CC[C@H](C)CC2)C2CCN(C(=O)O[C@@H]3CCOC3)CC2)c(C(=O)O)s1 [Compound 53, 4-[[2-carboxy-5-(3,3-dimethyl-but-1-ynyl)-thiophen-3-yl]-(4-trans-methyl-cyclohexanecarbonyl)-amino]-piperidine-1-carboxylic acid tetrahydro-furan-3-(R)-yl ester] | 99.9%
8 | CC(C)(C)C#Cc1cc(N(C(=O)[C@H]2CC[C@H](C)CC2)C2CCN(C(=O)OC3CCOCC3)CC2)c(C(=O)O)s1 [Compound 54, 4-[[2-carboxy-5-(3,3-dimethyl-but-1-ynyl)-thiophen-3-yl]-(4-trans-methyl-cyclohexanecarbonyl)-amino]-piperidine-1-carboxylic acid tetrahydro-pyran-4-yl ester] | 99.8%
9 | CC(C)(C)C#Cc1cc(N(C(=O)[C@H]2CC[C@H](C)CC2)C2CCN(C(=O)O[C@H]3CNC(=O)C3)CC2)c(C(=O)O)s1 [Compound 55, 4-[[2-carboxy-5-(3,3-dimethyl-but-1-ynyl)-thiophen-3-yl]-(4-trans-methyl-cyclohexanecarbonyl)-amino]-piperidine-1-carboxylic acid 5-oxo-pyrrolidin-3-(R)-yl ester] | 87.9%
